“Also recorded” adds a separate entry of the source.
Experiments:
Urinary KIM-1 = Urinary KIM-1 kidney injury in rats given vancomycin and/or protamine
Procedure: Male Sprague-Dawley rats (n = 19; age 8–10 weeks; 268–304 g; Envigo, Indianapolis, IN, USA) underwent double jugular catheterization ([33]) (Fig. 3A). Surgery was performed under ketamine (100 mg/kg of body weight) and xyalzine (10 mg/kg of body weight) anesthesia with buprenorphine (0.02 mg/kg of body weight) given post-operatively for pain management. Animals were allowed to recover 4 days before the administration of any drug. Animals were housed in metabolic cages starting 1 day prior to day 0 with access to food and water ad libitum for the duration of the study (Fig. 3B).
Animals were divided into three experimental treatment protocols. Using a dedicated jugular vein for dosing, the animals received clinical grade intravenous protamine and/or vancomycin in doses allometrically scaled to humans according to the following protocols: (i) protamine sulfate (1.5 mg/kg of body weight) and vancomycin (150 mg/kg of body weight) (n = 6); (ii) protamine only (1.5 mg/kg of body weight) with saline sham (sham for volume of vancomycin) (n = 7); or (iii) vancomycin only (150 mg/kg of body weight) with saline sham (sham for volume of protamine) (n = 6) ([34][–][36]). Saline sham was given to match the volumes of protamine and vancomycin doses to maintain euvolemia. On day 0, all animals received only iohexol (51.8 mg/day) intravenously to establish baseline GFR measurements. Drugs were administered as described above by treatment protocols to all groups on days 1–4. Infusion times for each of the drugs include (i) protamine sulfate, 5 minutes; (ii) vancomycin and iohexol, 2 minutes; and (iii) saline sham, 5 or 2 minutes depending on what the sham was replacing.
Urine samples were collected daily, and volumes were measured starting from day 0 to day 4. Samples were centrifuged at 500 g for 10 minutes, and the resulting supernatant was aliquoted (1.5 mL) and stored at −80°C for renal biomarker analysis later.
Urinary samples were analyzed for KIM-1 using the Milliplex MAP Rat Kidney Toxicity Magnetic Bead Panel 1 (EMD Millipore Corporation, Charles, MO, USA) according to the manufacturer’s directions and as previously described ([34], [36], [37]). Briefly, neat urine aliquots were mixed with monoclonal antibody-coated magnetic microbeads (Bead Panel 1) and run on a 96-well plate, which also included a standard curve. Biomarker data were acquired, and concentrations were analyzed using Belysa Immunoassay Curve-Fitting Software V1 (MilliporeSigma, Darmstadt, Germany). The amount of urinary KIM-1 excreted over the 24-h collection period was obtained by multiplying the urinary concentration by 24-h urinary volume.
An omnibus test, i.e., joint tests (multi-degree of freedom) of the interaction and main effects, which is similar to the F test in ANOVA, was used initially (STATA 17.0 BE, StataCorp LLC, College Station, TX, USA). Only models with significant interaction at P < 0.05 were selected for post hoc analysis (i.e., identification of the difference between treatment groups and days). Margins were calculated for a full factorial of the variables, i.e., main effects for each variable and interactions. Referent groups were pre-treatment baseline values and protamine alone as a treatment, except where noted. […] LOWESS graphs were produced in R version 4.2.2 using ggplot2. […] All tests were two-tailed; a P < 0.05 was required for statistical significance. Graphs for cellular studies were generated using GraphPad version 9.3.1 and were fit with a log(inhibitor) vs normalized response function after log transformation.

OAT1 = OAT1 inhibition study (CHOK1 cells, p-aminohippurate substrate); assay type: cell-based; conditions: for Inhibition of OAT1 (in words): p-aminohippurate 10 µM
Procedure: (§1) Organic anion transporter (OAT1 and OAT3) and OCT2 inhibition studies with protamine sulfate were performed by Eurofins Scientific (St. Charles, MO, USA) as previously described ([38], [39]). Protamine sulfate was dissolved in DMSO to 1.0E-02 M and tested concurrently with p-aminohippurate 10 µM (substrate) for OAT1, ranitidine 10 µM (substrate) for OAT3, and metformin 100 µM (substrate) for OCT2. A pre-incubation time of 30 minutes was used, followed by 20 minutes of incubation with the substrate. CHOK1 cells were used in OAT1 and 3 experiments, and HEK cells were used in OCT2 experiments. The percentage of inhibition was calculated vs the percentage of control. The IC50 value (concentration causing a half-maximal inhibition of the control value) was determined by nonlinear regression analysis of the concentration-response curve from a Hill equation.
(§2) No data were excluded as outliers.

OAT3 = OAT3 inhibition study (CHOK1 cells, ranitidine substrate); assay type: cell-based; conditions: for Inhibition of OAT3 (in words): ranitidine 10 µM
Procedure: as §1, §2

OCT2 = OCT2 inhibition study (HEK cells, metformin substrate); assay type: cell-based; conditions: for Inhibition of OCT2 (in words): metformin 100 µM
Procedure: as §1, §2

opossum kidney cells = conditions: cited from earlier work
From the text: Based on chemical structure, we hypothesized that protamine might block megalin and decrease VAN. While relatively little information is available on the megalin-binding capacity of protamine, protamine shares binding sites with heparin (which is the current target for FDA-approved use) and megalin ([30], [31]). […] Megalin antagonists ... || Originally derived from salmon fish sperm (salmine), protamine is a highly positively charged protein consisting of 32 amino acids. Currently, it is widely used as an effective agent to neutralize heparin using electrostatic bonds made between the cationic arginine groups of protamine and the anionic heparin in a 1:1 ratio ([6]). Specifically, protamine shares binding sites with heparin (current target for FDA-approved use) and megalin ([30], [31]). On this note, a clinical limitation for the use of protamine arises for patients who require heparin infusions, such as post-diabetic foot infecti ...

[1] = in vivo; cited from earlier work
Procedure: Additional work i ... || Despite the promise of protamine as a new treatment approach, this study is subject to several limitations. First, our study was performed in rats. While the rat model has shown strong relevance to the human condition ([14]) with respect to VAN, clinical trials are necessary to confirm the effect. Second, protamine delayed kidney injury by 1–3 days; however, a multi-pronged approach may be needed to fully suppress injury in vancomycin therapy that exceeds 2 days. Third, as noted above, protamine is not a viable therapeutic for patients who require heparin. Fourth, protamine itself is associate ...

[2] = CHOK1 cells, listed as protamine

Protamine
Protective effect against vancomycin-associated nephrotoxicity (in words) (Urinary KIM-1; addition of protamine to vancomycin): provides a protective effect against vancomycin-associated nephrotoxicity | Delay of vancomycin-induced kidney injury as defined by urinary KIM-1 (Urinary KIM-1; protamine added to vancomycin therapy): 1 to 3 days | KIM-1 change from baseline of day 1 (in words) (Urinary KIM-1; rat, in vivo): did not have a KIM-1 increase over the 4 days | KIM-1 compared to protamine alone (in words) (Urinary KIM-1; rat, in vivo): did not experience this increase on day 2 | KIM-1 compared to vancomycin alone (in words) (Urinary KIM-1; rat, in vivo): numerically similar to animals that received vancomycin alone | Injury prevention (in words) (Urinary KIM-1; urinary KIM-1, protamine with vancomycin): a full day of injury prevention | Inhibition of OAT1 (in words) (OAT1; CHOK1 cells): does not appear to have significant inhibition on OAT1, OAT3, or OCT2 | IC50 (OAT1; CHOK1 cells, p-aminohippurate 10 µM substrate, pre-incubation 30 minutes, 20 minutes with substrate, protamine sulfate in DMSO, Eurofins): 100 µM | Inhibition of OAT1 (in words) (OAT1; [2]): No substantial inhibition; also recorded: does not have a significant inhibition on OAT1, OAT3, or OCT2 except at extremely high concentrations; also recorded: little to no inhibition | IC50 ratio protamine vs probenecid (OAT1; OAT1): 62.5 times higher | Inhibition of OAT-1 (OAT1; at 0.1 mM protamine, Fig. 6): < 50% | Inhibition of OAT3 (in words) (OAT3; CHOK1 cells): does not appear to have significant inhibition on OAT1, OAT3, or OCT2 | IC50 (OAT3; CHOK1 cells, ranitidine 10 µM substrate, pre-incubation 30 minutes, 20 minutes with substrate, protamine sulfate in DMSO, Eurofins): 100 µM | Inhibition of OAT3 (in words) (OAT3; [2]): No substantial inhibition; also recorded: does not have a significant inhibition on OAT1, OAT3, or OCT2 except at extremely high concentrations; also recorded: little to no inhibition | IC50 ratio protamine vs probenecid (OAT3; OAT3): 58.8 times higher | Inhibition of OAT-3 (OAT3; at 0.1 mM protamine, Fig. 6): < 50% | Inhibition of OCT2 (in words) (OCT2; HEK cells): does not appear to have significant inhibition on OAT1, OAT3, or OCT2 | IC50 (OCT2; HEK cells, metformin 100 µM substrate, pre-incubation 30 minutes, 20 minutes with substrate, protamine sulfate in DMSO, Eurofins): 43 µM | Inhibition of OCT2 (in words) (OCT2; HEK cells, listed as protamine): No substantial inhibition; also recorded: does not have a significant inhibition on OAT1, OAT3, or OCT2 except at extremely high concentrations; also recorded: minor inhibition | IC50 ratio protamine vs verapamil (OCT2; OCT2): 5.2 times higher | Inhibition of OCT-2 (OCT2; at similar concentrations (to 0.1 mM) of protamine, Fig. 6): at least 50% | Entry into kidney epithelial cells (in words) (opossum kidney cells): enters kidney epithelial cells and localizes in the cytoplasm via receptor-mediated endocytosis | Inhibition of gentamicin uptake (in words) (opossum kidney cells; cultured opossum kidney cells that expressed megalin and cubilin, ref Nagai and colleagues ([32])): inhibited the uptake of gentamicin | Prevention of gentamicin accumulation (in words) (opossum kidney cells; kidney epithelial cells): has demonstrated prevention of gentamicin accumulation | Safety liabilities (in words) [1]: severe hypotension and anaphylactoid-like reactions | Toxicities (in words) [1]: cardiopulmonary dysfunction and shock as well as antibody-mediated hypersensitivity reactions
